Like-named read-outs stand apart in the source and are kept apart here.
What was measured:
Pancreatic lipase (PL) = molecular target: T1, Pancreatic lipase (PL) (Sus scrofa, UniProt P00591); experiment: Inhibition of PL-mediated 4-MUO hydrolysis; type: biochemical; settings: 4-MUO substrate, mean ± SD (n = 3)
T1 construct: purchased Sigma Aldrich type II, Lot.SLBN9099V
T1 sequence (P00591 1-450): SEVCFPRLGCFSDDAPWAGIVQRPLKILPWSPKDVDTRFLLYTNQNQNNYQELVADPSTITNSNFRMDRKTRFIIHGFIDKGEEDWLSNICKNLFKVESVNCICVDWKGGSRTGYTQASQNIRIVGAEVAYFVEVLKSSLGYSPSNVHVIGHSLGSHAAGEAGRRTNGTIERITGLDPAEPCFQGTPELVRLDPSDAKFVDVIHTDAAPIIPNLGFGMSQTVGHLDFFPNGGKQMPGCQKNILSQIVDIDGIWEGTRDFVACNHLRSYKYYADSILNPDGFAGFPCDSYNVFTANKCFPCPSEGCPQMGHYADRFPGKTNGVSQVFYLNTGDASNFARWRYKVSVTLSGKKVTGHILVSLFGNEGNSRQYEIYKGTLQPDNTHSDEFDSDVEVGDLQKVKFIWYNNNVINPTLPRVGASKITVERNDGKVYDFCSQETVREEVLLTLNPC
Method: In addition, the background fluorescence in the absence of an enzyme source (PL) (add the same amount of citrate-Na2HPO4 buffer) was measured. […] Then start the reaction by adding 2 µL of 4-MUO probe (3 µM, final concentration). The fluorescence signal of 4-MU (hydrolytic metabolite) was detected by multi-mode microplate reader (SpectraMax M4, Molecular Devices, Urstein, Austria) with continuous oscillation for 20 min and recorded and analysed at 60 s intervals. The excitation wavelength and emission wavelength of 4-MU were set at 340 nm and 460 nm, respectively, and the gain value was 500.
(§1) Subsequently, various concentrations of substrates (selected according to Km) and different concentrations of inhibitors were used to determine the corresponding reaction rate, and the second slope graph of the Lineweaver–Burk diagram was used as a function of the inhibitor to calculate the corresponding inhibition constant (Ki) value. All kinetic data were fitted by the following kinetic equations (a–c), for competitive (a), non-competitive (b) and mixed inhibition (c): (a) V=(VmaxS)/[Km(1+I/Ki)+S] (b) V=(VmaxS)/[(Km+S)×(1+I/Ki)] (c) V=(VmaxS)/[(Km+S)×(1+I/αKi)] where V is the hydrolytic velocity of the reaction, Vmax is the maximum velocity. S and I are substrate (4-MUO, NLMe) and inhibitor (compound 39/41) concentrations, respectively. Ki is the inhibition constant of the tested inhibitor against the target PL and hCES1A; Km is the Michaelis constant (the substrate concentration at half of the Vmax).
All measurements were made in triplicate and the data obtained in the experiment were shown as mean ± SD.

hCES1A = molecular target: T2, hCES1A (Homo sapiens, UniProt P23141); experiment: Inhibition of hCES1A-mediated NLMe hydrolysis in human liver microsomes; type: biochemical
T2 construct: tissue Bioreclamation IVT lot No. X008067; host or cells: pooled human liver microsomes from 50 donors
T2 sequence (P23141 18-567): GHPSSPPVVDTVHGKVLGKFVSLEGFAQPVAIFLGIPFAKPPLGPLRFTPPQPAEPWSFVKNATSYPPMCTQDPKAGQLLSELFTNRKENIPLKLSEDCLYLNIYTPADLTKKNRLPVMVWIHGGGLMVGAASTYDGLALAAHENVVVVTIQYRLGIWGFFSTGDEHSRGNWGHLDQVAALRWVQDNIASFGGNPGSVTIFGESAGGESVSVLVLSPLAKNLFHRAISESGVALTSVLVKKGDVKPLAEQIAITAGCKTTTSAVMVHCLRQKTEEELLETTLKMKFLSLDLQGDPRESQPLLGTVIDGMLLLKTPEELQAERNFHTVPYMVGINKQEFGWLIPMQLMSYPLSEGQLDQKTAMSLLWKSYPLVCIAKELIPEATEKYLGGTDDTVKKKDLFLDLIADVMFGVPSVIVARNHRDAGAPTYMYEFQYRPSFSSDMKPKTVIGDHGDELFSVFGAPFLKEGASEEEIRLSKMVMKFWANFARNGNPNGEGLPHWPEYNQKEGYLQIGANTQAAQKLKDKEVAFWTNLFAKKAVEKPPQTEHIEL
Method: N-Alkylated D-luciferin methyl ester (NLMe), a Specific probe for hCES1A[45], was used for assessing the inhibitory effects for triterpenoids, and BNPP was used as a positive inhibitor of hCES1A. […] Then NLMe (2 µL, 0.15 mM) was added to start the reaction. After shaking the reaction in 37 °C incubator for 10 min, 50 µL of reaction solution was removed and mixed with LDR (50 µL) to terminate the reaction. A multi-mode microplate reader was used to detect the luminescence signal of NL (the hydrolysed metabolite of NLMe). The luminescence product of NL was measured at 580 nm (gain: 140). The final volume ratio of DMSO was less than 1% (V/V).
as §1
All measurements were made in triplicate and the data obtained in the experiment were shown as mean ± SD. The IC50 and Ki values of the compounds with strong inhibitory effect were evaluated by nonlinear regression with graphpad prism 7.0 software (GraphPad Software, Inc., La Jolla, CA).

[1] = NLMe substrate, HLM, mean ± SD (n = 3), read-out: IC50 (µM) hCES1A

SMILES	IC50 (Pancreatic lipase (PL)) [µM]	IC50 (hCES1A; [1]) [µM]	IC50 (hCES1A) [µM]
CC1(C)CC[C@]2(C(=O)O)CC[C@]3(C)C(=CC[C@@H]4[C@@]5(C)CC[C@H](O)C(C)(C)[C@@H]5CC[C@]43C)[C@@H]2C1 [Compound 1, oleanolic acid]	8.63 ± 0.84	0.04 ± 0.003	
CC1(C)CC[C@]2(C(=O)O)CC[C@]3(C)C(=CC[C@@H]4[C@@]5(C)C[C@@H](O)[C@H](O)C(C)(C)[C@@H]5CC[C@]43C)[C@@H]2C1 [Compound 2, maslinic acid]	16 ± 4.59		0.12 ± 0.01
CC1(C)CC[C@]2(C(=O)O)[C@H](O)C[C@]3(C)C(=CC[C@@H]4[C@@]5(C)C[C@@H](O)[C@H](O)[C@@](C)(CO)[C@@H]5CC[C@]43C)[C@@H]2C1 [Compound 4, polygalacic acid]	> 100		
C[C@H]1[C@H](C)CC[C@]2(C(=O)O)CC[C@]3(C)C(=CC[C@@H]4[C@@]5(C)CC[C@H](O)C(C)(C)[C@@H]5CC[C@]43C)[C@H]12 [Compound 5, ursolic acid]	6.16 ± 0.97	0.04 ± 0.004	
C[C@H]1[C@H](C)CC[C@]2(C(=O)O)CC[C@]3(C)C(=CC[C@@H]4[C@@]5(C)C[C@@H](O)[C@H](O)C(C)(C)[C@@H]5CC[C@]43C)[C@H]12 [Compound 6, corosolic acid]	12.8 ± 1.44		0.34 ± 0.04
C[C@H]1[C@H](C)CC[C@]2(C)CC[C@]3(C)C(=CC[C@@H]4[C@@]5(C)CC[C@@H](O)[C@](C)(C(=O)O)[C@@H]5CC[C@]43C)[C@H]12 [Compound 8, β-Boswellic acid]	0.42 ± 0.05	> 100	
CC1(C)[C@@H](O)CC[C@]2(C)[C@H]3C(=O)C=C4[C@@H]5C[C@@](C)(C(=O)O)CC[C@]5(C)CC[C@@]4(C)[C@]3(C)CC[C@@H]12 [Compound 9, glycyrrhetic acid]	28.3 ± 9.47		
CC1(C)[C@@H](O[C@H]2O[C@H](C(=O)O)[C@@H](O)[C@H](O)[C@H]2O[C@@H]2O[C@H](C(=O)O)[C@@H](O)[C@H](O)[C@H]2O)CC[C@]2(C)[C@H]3C(=O)C=C4[C@@H]5C[C@@](C)(C(=O)O)CC[C@]5(C)CC[C@@]4(C)[C@]3(C)CC[C@@H]12 [Compound 10, glycyrrhizic acid]	> 100		
CC1=C(O)C(=O)C=C2C1=CC=C1[C@@]2(C)CC[C@@]2(C)[C@@H]3C[C@](C)(C(=O)O)CC[C@]3(C)CC[C@]12C [Compound 11, Celastrol]	4.69 ± 0.37		14.3 ± 3.03
C=C(C)[C@@H]1CC[C@]2(C=O)CC[C@]3(C)[C@H](CC[C@@H]4[C@@]5(C)CC[C@H](O)C(C)(C)[C@@H]5CC[C@]43C)[C@@H]12 [Compound 13]	> 100		
C=C(C)[C@@H]1CC[C@]2(C(=O)O)CC[C@]3(C)[C@H](CC[C@@H]4[C@@]5(C)CC[C@H](O)C(C)(C)[C@@H]5CC[C@]43C)[C@@H]12 [Compound 14]	> 100		
C=C(C)[C@@H]1CC[C@]2(C)CC[C@]3(C)[C@H](CC[C@@H]4[C@@]5(C)CC[C@H](O)C(C)(C)[C@@H]5CC[C@]43C)[C@@H]12 [Compound 15]	> 100		
C=C(CC[C@@H](C(=O)O)[C@H]1[C@H](O)C[C@@]2(C)C3=C(CC[C@]12C)[C@@]1(C)CC[C@H](OC(C)=O)C(C)(C)[C@@H]1CC3)C(C)C [Compound 16, pachymic acid]	> 100		
CC(CC(=O)C[C@@H](C)[C@H]1CC(=O)[C@@]2(C)C3=C(C(=O)C[C@]12C)[C@@]1(C)CC[C@H](O)C(C)(C)[C@@H]1C[C@@H]3O)C(=O)O (stereo partly shown) [Compound 17, ganoderic acid B]	> 100		
CC(C)=CCC[C@](C)(O[C@@H]1O[C@H](CO)[C@@H](O)[C@H](O)[C@H]1O)[C@H]1CC[C@]2(C)[C@@H]1[C@H](O)C[C@@H]1[C@@]3(C)CC[C@H](O)C(C)(C)[C@@H]3[C@@H](O)C[C@]12C [Compound 18]	> 100		
CC(C)=CCC=C(C)C1CCC2(C)C1C(O)CC1C3(C)CCC(O)C(C)(C)C3C(OC3OC(CO)C(O)C(O)C3OC3OC(C)C(O)C(O)C3O)CC12C (stereo not shown) [Compound 19]	74.5 ± 28.4		
CC(C)=CCCC(C)(OC1OC(CO)C(O)C(O)C1O)C1CCC2(C)C1C(O)CC1C3(C)CCC(O)C(C)(C)C3C(OC3OC(CO)C(O)C(O)C3OC3OC(CO)C(O)C(O)C3O)CC12C (stereo not shown) [Compound 20]	29.7 ± 5.02		
CC(C)=CCC[C@](C)(O[C@@H]1O[C@H](CO)[C@@H](O)[C@H](O)[C@H]1O)[C@H]1CC[C@]2(C)[C@@H]1[C@H](O)C[C@@H]1[C@@]3(C)CC[C@H](O)C(C)(C)[C@@H]3[C@@H](O[C@@H]3O[C@H](CO)[C@@H](O)[C@H](O)[C@H]3O[C@@H]3O[C@@H](C)[C@H](O)[C@@H](O)[C@H]3O)C[C@]12C [Compound 21]	> 100		
CC(C)=CCC[C@](C)(O[C@@H]1O[C@H](CO)[C@@H](O)[C@H](O)[C@H]1O)[C@H]1CC[C@]2(C)[C@@H]1[C@H](O)C[C@@H]1[C@@]3(C)CC[C@H](O)C(C)(C)[C@@H]3[C@@H](O[C@@H]3O[C@H](CO)[C@@H](O)[C@H](O)[C@H]3O)C[C@]12C [Compound 22]	> 100		
CC(C)=CCC[C@](C)(O)[C@H]1CC[C@]2(C)[C@@H]1[C@H](O)C[C@@H]1[C@@]3(C)CC[C@H](O)C(C)(C)[C@@H]3[C@@H](O[C@@H]3O[C@H](CO)[C@@H](O)[C@H](O)[C@H]3O[C@@H]3O[C@@H](C)[C@H](O)[C@@H](O)[C@H]3O)C[C@]12C [Compound 23]	> 100		
CC(C)=CCC[C@](C)(O)[C@H]1CC[C@]2(C)[C@@H]1[C@H](O)C[C@@H]1[C@@]3(C)CC[C@H](O)C(C)(C)[C@@H]3[C@@H](O[C@@H]3O[C@H](CO)[C@@H](O)[C@H](O)[C@H]3O)C[C@]12C [Compound 24]	> 100		
CC(C)=CC/C=C(\C)[C@H]1CC[C@]2(C)[C@@H]1[C@H](O)C[C@@H]1[C@@]3(C)CC[C@H](O)C(C)(C)[C@@H]3[C@@H](O[C@@H]3O[C@H](CO)[C@@H](O)[C@H](O)[C@H]3O)C[C@]12C [Compound 25]	> 100		
CC1(C)CC[C@]2(C(=O)O[C@@H]3O[C@H](CO)[C@@H](O)[C@H](O)[C@H]3O)CC[C@]3(C)C(=CC[C@@H]4[C@@]5(C)CC[C@H](O[C@@H]6O[C@H](C(=O)O)[C@@H](O)[C@H](O)[C@H]6O[C@@H]6O[C@H](CO)[C@@H](O)[C@H](O)[C@H]6O)C(C)(C)[C@@H]5CC[C@]43C)[C@@H]2C1 [Compound 26]	> 100		
CC(C)=CCC[C@](C)(O[C@@H]1O[C@H](CO)[C@@H](O)[C@H](O)[C@H]1O)[C@H]1CC[C@]2(C)[C@@H]1[C@H](O)C[C@@H]1[C@@]3(C)CC[C@H](O)C(C)(C)[C@@H]3[C@@H](O[C@@H]3O[C@H](CO)[C@@H](O)[C@H](O)[C@H]3O[C@@H]3OC[C@@H](O)[C@H](O)[C@H]3O)C[C@]12C [Compound 27]	> 100		
CCCCCCCCCCC[C@@H](C[C@@H]1OC(=O)[C@H]1CCCCCC)OC(=O)[C@H](CC(C)C)NC=O [Compound 28, Orlistat, reference compound]		0.035 ± 0.003	

From article PMC8812735, “Discovery of triterpenoids as potent dual inhibitors of pancreatic lipase and human carboxylesterase 1” (Journal of Enzyme Inhibition and Medicinal Chemistry, 2022)
